# Legend:
# [1] = system: Proto-oncogene tyrosine-protein kinase receptor Ret (Homo sapiens), P07949 [C634W]; settings: TT
# Description: Inhibition of RET C634W mutant in human TT cells assessed as cell growth inhibition after 10 days by MTT assay
# [2] = system: Proto-oncogene tyrosine-protein kinase receptor Ret (Homo sapiens), P07949 [V804M]; settings: BaF3
# [3] = molecular target: Proto-oncogene tyrosine-protein kinase receptor Ret (Homo sapiens, UniProt P07949, V804M); test: Inhibition of human Ret V804M mutant by radiometric assay in presence of [gamma-33P]-ATP
# [4] = Cytotoxicity against mouse BAF3 cells after 48 hrs by MTT assay; type: cell-based
# [5] = molecular target: T1, Proto-oncogene tyrosine-protein kinase receptor Ret (Homo sapiens, UniProt P07949); test: Inhibition of human wild type RET by radiometric assay in presence of [gamma-33P]-ATP
# [6] = molecular target: T1, Proto-oncogene tyrosine-protein kinase receptor Ret; settings: BaF3
# Description: Inhibition of wild type TEL-fused RET (unknown origin) expressed in mouse BA/F3 cells assessed as cell growth inhibition after 48 hrs by MTT assay
# [7] = Cytotoxicity against human Nthy-ori 3-1 cells after 10 days by MTT assay; type: cell-based
# [8] = molecular target: Vascular endothelial growth factor receptor 3 (Homo sapiens, UniProt P35916); test: Inhibition of recombinant human FLT4 by radiometric assay in presence of [gamma-33P]-ATP
# Cytochrome P450 1A2 = Cytochrome P450 1A2 (Homo sapiens, UniProt P05177); test: Inhibition of CYP1A2 (unknown origin); type: ADME
# [9] = system: Proto-oncogene tyrosine-protein kinase receptor Ret (Homo sapiens), P07949 [S891A]; settings: BaF3
# Cytochrome P450 2C9 = Cytochrome P450 2C9 (Homo sapiens, UniProt P11712); test: Inhibition of CYP2C9 (unknown origin); type: ADME
# [10] = Cell cycle arrest in human Nthy-ori 3-1 cells assessed as accumulation at G2 phase at 10 uM after 24 hrs by […] staining-based flow cytometric analysis; settings: nthy-ori 3-1, 24 h
# [11] = molecular target: Proto-oncogene tyrosine-protein kinase receptor Ret (Homo sapiens, UniProt P07949, G691S); test: Inhibition of human Ret G691S mutant by radiometric assay in presence of [gamma-33P]-ATP
# Cytochrome P450 3A4 = Cytochrome P450 3A4 (Homo sapiens, UniProt P08684); test: Inhibition of CYP3A4 (unknown origin); type: ADME
# Cytochrome P450 2D6 = Cytochrome P450 2D6 (Homo sapiens, UniProt P10635); test: Inhibition of CYP2D6 (unknown origin); type: ADME
# [12] = molecular target: Dual specificity mitogen-activated protein kinase kinase 1 (Homo sapiens, UniProt Q02750); test: Inhibition of recombinant human MEK1 by radiometric assay in presence of [gamma-33P]-ATP
# TT [13] = test: Cytotoxicity against human TT cells assessed as suppression of anchorage-independent growth at 0.3 to 1 uM for 30 days by soft agar assay; type: functional
# [14] = Half life in human liver microsomes; type: ADME
# [15] = molecular target: Voltage-gated inwardly rectifying potassium channel KCNH2 (Homo sapiens, UniProt Q12809); test: Inhibition of human ERG assessed as prolongation of QT-interval at 100 uM by patch-clamp assay
# [16] = molecular target: T2, Vascular endothelial growth factor receptor 2 (Homo sapiens, UniProt P35968); test: Inhibition of recombinant human VGFR2 by radiometric assay in presence of [gamma-33P]-ATP
# [17] = molecular target: Proto-oncogene tyrosine-protein kinase receptor Ret (Homo sapiens, UniProt P07949, Y791F); test: Inhibition of human Ret Y791F mutant by radiometric assay in presence of [gamma-33P]-ATP
# [18] = molecular target: T2, Vascular endothelial growth factor receptor 2; test: Inhibition of TEL-fused VEGFR2 (unknown origin) expressed in mouse BA/F3 cells assessed as cell growth inhibition; type: cell-based; settings: baf3
# [19] = molecular target: Ribosomal protein S6 kinase alpha-1 (Homo sapiens, UniProt Q15418); test: Inhibition of recombinant human RSK1 by radiometric assay in presence of [gamma-33P]-ATP
# [20] = molecular target: Proto-oncogene tyrosine-protein kinase receptor Ret (Homo sapiens, UniProt P07949, V804L); test: Inhibition of human Ret V804L mutant by radiometric assay in presence of [gamma-33P]-ATP
# Cytochrome P450 2C19 = Cytochrome P450 2C19 (Homo sapiens, UniProt P33261); test: Inhibition of CYP2C19 (unknown origin); type: ADME
# [21] = Induction of apoptosis in human Nthy-ori 3-1 cells at 10 uM after 48 hrs by annexinV/PI staining-based flow cytometric analysis; type: cell-based; settings: nthy-ori 3-1, 48 h
# [22] = molecular target: Proto-oncogene tyrosine-protein kinase receptor Ret (Homo sapiens, UniProt P07949, S891A); test: Inhibition of human Ret S891A mutant by radiometric assay in presence of [gamma-33P]-ATP
# [23] = Inhibition of recombinant human PKA by radiometric assay in presence of [gamma-33P]-ATP
# [24] = molecular target: Dual specificity mitogen-activated protein kinase kinase 2 (Homo sapiens, UniProt P36507); test: Inhibition of recombinant human MEK2 by radiometric assay in presence of [gamma-33P]-ATP
# [25] = system: Proto-oncogene tyrosine-protein kinase receptor Ret (Homo sapiens), P07949 [V804L]; settings: BaF3
# [26] = molecular target: Tyrosine-protein kinase HCK (Homo sapiens, UniProt P08631); test: Inhibition of recombinant human HCK by radiometric assay in presence of [gamma-33P]-ATP
# [27] = molecular target: Tyrosine-protein kinase Fgr (Homo sapiens, UniProt P09769); test: Inhibition of recombinant human FGR by radiometric assay in presence of [gamma-33P]-ATP
# [28] = molecular target: Proto-oncogene tyrosine-protein kinase receptor Ret (Homo sapiens, UniProt P07949, M918T); test: Inhibition of human Ret M918T mutant by radiometric assay in presence of [gamma-33P]-ATP
# [29] = molecular target: Ribosomal protein S6 kinase beta-1 (Homo sapiens, UniProt P23443); test: Inhibition of recombinant human p70S6K by radiometric assay in presence of [gamma-33P]-ATP
# [30] = Ratio of GI50 for human Nthy-ori-3-1 cells to GI50 for RET C634W mutant-mediated human TT cell growth inhibition
# [31] = Induction of apoptosis in human Nthy-ori 3-1 cells at 1 to 10 uM after 48 hrs by annexinV/PI staining-based flow cytometric analysis; type: cell-based; settings: nthy-ori 3-1, 48 h
# [32] = Cell cycle arrest in human Nthy-ori 3-1 cells at 1 to 10 uM after 24 hrs by […] staining-based flow cytometric analysis; settings: nthy-ori 3-1, 24 h
# TT [33] = test: Cytotoxicity against human TT cells assessed as suppression of anchorage-independent growth at 1 uM for 30 days by soft agar assay; type: functional
# Sequence of Proto-oncogene tyrosine-protein kinase receptor Ret (Homo sapiens), P07949 [V804M] (P07949 whole entry V804M): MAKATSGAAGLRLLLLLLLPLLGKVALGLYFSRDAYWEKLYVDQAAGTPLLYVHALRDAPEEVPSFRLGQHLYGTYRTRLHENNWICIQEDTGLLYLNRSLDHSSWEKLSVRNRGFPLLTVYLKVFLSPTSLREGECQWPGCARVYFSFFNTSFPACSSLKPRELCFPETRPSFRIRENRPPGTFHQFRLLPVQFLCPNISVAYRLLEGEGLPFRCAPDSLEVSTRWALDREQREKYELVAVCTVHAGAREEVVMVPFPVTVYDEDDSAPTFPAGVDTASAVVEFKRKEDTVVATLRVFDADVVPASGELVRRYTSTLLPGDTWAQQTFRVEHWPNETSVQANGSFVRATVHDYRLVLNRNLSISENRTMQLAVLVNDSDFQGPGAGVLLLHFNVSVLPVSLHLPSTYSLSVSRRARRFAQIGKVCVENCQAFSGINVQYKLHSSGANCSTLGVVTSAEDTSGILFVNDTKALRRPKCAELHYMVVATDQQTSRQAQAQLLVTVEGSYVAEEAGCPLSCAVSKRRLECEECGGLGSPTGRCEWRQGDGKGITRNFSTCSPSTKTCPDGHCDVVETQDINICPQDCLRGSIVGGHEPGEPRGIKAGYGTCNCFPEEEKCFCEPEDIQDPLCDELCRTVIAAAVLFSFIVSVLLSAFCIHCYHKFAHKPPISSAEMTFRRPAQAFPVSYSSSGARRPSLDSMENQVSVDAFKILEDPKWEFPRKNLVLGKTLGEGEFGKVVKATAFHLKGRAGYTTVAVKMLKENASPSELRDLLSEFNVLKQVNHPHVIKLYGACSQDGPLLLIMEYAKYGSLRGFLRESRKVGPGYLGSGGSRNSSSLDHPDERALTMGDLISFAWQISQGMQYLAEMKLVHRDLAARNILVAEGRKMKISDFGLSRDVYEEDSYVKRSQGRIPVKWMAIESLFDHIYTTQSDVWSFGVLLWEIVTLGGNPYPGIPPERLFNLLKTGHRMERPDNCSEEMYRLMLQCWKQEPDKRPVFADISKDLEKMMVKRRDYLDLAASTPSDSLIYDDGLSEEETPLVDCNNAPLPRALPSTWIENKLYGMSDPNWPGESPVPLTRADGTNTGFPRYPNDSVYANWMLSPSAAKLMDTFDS
# Sequence of Proto-oncogene tyrosine-protein kinase receptor Ret (Homo sapiens), P07949 [V804L] (P07949 whole entry V804L): as the sequence (P07949 whole entry V804M) above, with M804L counted along it
# Sequence of Proto-oncogene tyrosine-protein kinase receptor Ret (Homo sapiens, UniProt P07949, V804M) (P07949 29-1114 V804M limits assumed): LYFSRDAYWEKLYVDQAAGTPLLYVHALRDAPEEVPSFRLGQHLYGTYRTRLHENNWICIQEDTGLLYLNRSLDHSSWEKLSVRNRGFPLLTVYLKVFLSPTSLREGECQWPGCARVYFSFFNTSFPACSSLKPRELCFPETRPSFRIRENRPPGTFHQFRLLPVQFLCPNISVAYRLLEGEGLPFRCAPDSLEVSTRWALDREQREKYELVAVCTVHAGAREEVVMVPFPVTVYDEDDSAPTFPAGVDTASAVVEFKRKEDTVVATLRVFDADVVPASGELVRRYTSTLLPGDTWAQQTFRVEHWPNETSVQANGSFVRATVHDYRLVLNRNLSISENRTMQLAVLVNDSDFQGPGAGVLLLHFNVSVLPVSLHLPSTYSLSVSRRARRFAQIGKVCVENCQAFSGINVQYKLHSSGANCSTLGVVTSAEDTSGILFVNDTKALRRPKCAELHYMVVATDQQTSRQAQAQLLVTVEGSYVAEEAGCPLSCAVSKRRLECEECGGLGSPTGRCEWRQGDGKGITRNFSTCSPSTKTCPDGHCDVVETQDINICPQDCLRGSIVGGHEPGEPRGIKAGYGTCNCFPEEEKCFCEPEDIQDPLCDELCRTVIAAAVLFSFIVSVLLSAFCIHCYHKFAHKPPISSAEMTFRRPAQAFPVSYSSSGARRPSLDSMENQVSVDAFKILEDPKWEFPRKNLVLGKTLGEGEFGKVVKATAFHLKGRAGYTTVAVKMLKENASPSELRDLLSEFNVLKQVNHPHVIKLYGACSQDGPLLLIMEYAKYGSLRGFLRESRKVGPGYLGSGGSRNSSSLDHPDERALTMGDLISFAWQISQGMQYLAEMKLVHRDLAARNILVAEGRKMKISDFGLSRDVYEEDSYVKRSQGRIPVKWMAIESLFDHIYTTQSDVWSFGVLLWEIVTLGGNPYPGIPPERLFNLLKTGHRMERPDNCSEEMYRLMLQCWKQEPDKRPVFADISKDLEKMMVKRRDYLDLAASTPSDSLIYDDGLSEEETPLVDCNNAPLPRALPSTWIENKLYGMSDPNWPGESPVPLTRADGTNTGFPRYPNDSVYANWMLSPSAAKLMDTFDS
# Sequence of Proto-oncogene tyrosine-protein kinase receptor Ret (Homo sapiens), P07949 [S891A] (P07949 whole entry S891A): as the sequence (P07949 whole entry V804M) above, with M804V, S891A counted along it
# Sequence of Dual specificity mitogen-activated protein kinase kinase 2 (P36507 whole entry): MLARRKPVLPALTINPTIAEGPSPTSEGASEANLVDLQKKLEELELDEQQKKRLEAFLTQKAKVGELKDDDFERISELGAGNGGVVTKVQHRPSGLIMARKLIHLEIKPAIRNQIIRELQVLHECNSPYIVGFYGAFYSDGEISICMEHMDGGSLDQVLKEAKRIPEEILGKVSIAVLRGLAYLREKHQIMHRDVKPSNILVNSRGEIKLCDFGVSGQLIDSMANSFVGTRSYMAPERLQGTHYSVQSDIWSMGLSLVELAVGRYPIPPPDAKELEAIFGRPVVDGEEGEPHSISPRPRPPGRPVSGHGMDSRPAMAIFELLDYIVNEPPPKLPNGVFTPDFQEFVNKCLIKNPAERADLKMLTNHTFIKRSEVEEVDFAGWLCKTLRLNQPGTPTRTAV
structure (smiles),measurement,setting,value
CC(C)n1nc(/C=N/O)c2c(N)ncnc21,GI50,[1],> 10 µM
same,GI50,[2],> 10 µM
same,IC50,[3],3.68 µM
same,GI50 at 48 h,[4],> 10 µM
same,IC50,[5],4.9 µM
same,GI50,[6],> 10 µM
same,GI50 at 240 h,[7],107 µM
CC(C)n1nc(-c2cc(C3CCCC3)on2)c2c(N)ncnc21,GI50,[1],> 10 µM
same,GI50,[2],> 10 µM
same,IC50,[3],1.57 µM
same,GI50 at 48 h,[4],> 10 µM
same,IC50,[5],0.241 µM
same,GI50,[6],7.12 µM
same,GI50 at 240 h,[7],11.5 µM
CC(C)n1nc(-c2cc(C3CC3)on2)c2c(N)ncnc21,IC50,[8],0.072 µM
same,GI50,[1],0.24 µM
same,IC50,Cytochrome P450 1A2,2 µM
same,GI50,[9],0.09 µM
same,IC50,Cytochrome P450 2C9,> 30 µM
same,Activity,[10],Non-toxic
same,GI50,[2],0.32 µM
same,IC50,[3],0.004 µM
same,GI50 at 48 h,[4],> 10 µM
same,IC50,[11],0.01 µM
same,IC50,Cytochrome P450 3A4,> 30 µM
same,IC50,Cytochrome P450 2D6,> 30 µM
same,IC50,[12],0.142 µM
same,Activity,TT [13],150 CFU
same,half-life,[14],13 min
same,inhibition (INH),[15],Not Active
same,IC50,[16],0.096 µM
same,IC50,[17],0.003 µM
same,GI50,[18],3 µM
same,IC50,[19],0.311 µM
same,IC50,[20],0.021 µM
same,IC50,Cytochrome P450 2C19,> 30 µM
same,Activity,[21],Non-toxic
same,IC50,[22],0.002 µM
same,IC50,[23],0.039 µM
same,IC50,[5],0.0014 µM
same,IC50,[24],0.082 µM
same,GI50,[25],0.5 µM
same,GI50,[6],0.08 µM
same,IC50,[26],0.137 µM
same,IC50,[27],0.065 µM
same,GI50 at 240 h,[7],13.7 µM
same,IC50,[28],0.006 µM
same,IC50,[29],0.023 µM
same,RatioGI50,[30],50
CC(C)n1nc(C#Cc2ccccc2)c2c(N)ncnc21,GI50,[1],2.54 µM
same,GI50,[9],0.35 µM
same,GI50,[2],2.6 µM
same,IC50,[3],2.65 µM
same,GI50 at 48 h,[4],16.1 µM
same,IC50,[11],0.075 µM
same,Activity,TT [13],150 CFU
same,Activity,[31],Non-toxic
same,IC50,[17],0.014 µM
same,IC50,[20],3.13 µM
same,IC50,[22],0.054 µM
same,Activity,[32],Non-toxic
same,GI50,[25],5.43 µM
same,GI50,[6],0.61 µM
same,GI50 at 240 h,[7],3.58 µM
same,IC50,[28],0.057 µM
CC(C)c1cc(-c2nn(C(C)C)c3ncnc(N)c23)no1,GI50,[1],5.13 µM
same,GI50,[2],5.9 µM
same,IC50,[3],0.355 µM
same,GI50 at 48 h,[4],> 10 µM
same,IC50,[5],0.041 µM
same,GI50,[6],2.4 µM
same,GI50 at 240 h,[7],23.7 µM
COc1cc2nccc(Oc3ccc(NC(=O)C4(C(=O)Nc5ccc(F)cc5)CC4)cc3)c2cc1OC [CABOZANTINIB],GI50,[1],0.12 µM
same,GI50,[9],0.01 µM
same,Activity,[10],Toxic
same,GI50,[2],0.89 µM
same,Activity,TT [33],<3 CFU
same,Activity,[21],Non-toxic
same,GI50,[25],0.91 µM
same,GI50,[6],0.05 µM
same,GI50 at 240 h,[7],4.93 µM
CC(C)n1nc(-c2ccon2)c2c(N)ncnc21,GI50,[1],7.92 µM
same,GI50,[2],8.94 µM
same,IC50,[3],0.903 µM
same,GI50 at 48 h,[4],> 10 µM
same,IC50,[5],0.213 µM
same,GI50,[6],3.21 µM
same,GI50 at 240 h,[7],18.6 µM
CC(C)(O)Cn1nc(-c2cc(C3CC3)on2)c2c(N)ncnc21,GI50,[1],4.25 µM
same,GI50,[2],6.75 µM
same,IC50,[3],0.217 µM
same,GI50 at 48 h,[4],> 10 µM
same,IC50,[5],0.068 µM
same,GI50,[6],1.77 µM
same,GI50 at 240 h,[7],2.82 µM
Nc1ncnc2c1c(-c1cc(C3CC3)on1)nn2C1CCCCC1,GI50,[1],0.29 µM
same,GI50,[2],2 µM
same,IC50,[3],0.014 µM
same,GI50 at 48 h,[4],> 10 µM
same,IC50,[5],0.002 µM
same,GI50,[6],0.52 µM
same,GI50 at 240 h,[7],32.5 µM
CC(C)n1nc(-c2cc(C(C)(C)C)on2)c2c(N)ncnc21,GI50,[1],> 10 µM
same,GI50,[2],7.31 µM
same,IC50,[3],2.1 µM
same,GI50 at 48 h,[4],> 10 µM
same,IC50,[5],0.21 µM
same,GI50,[6],6.12 µM
same,GI50 at 240 h,[7],24.7 µM
CC(C)n1nc(-c2cc(Cc3ccccc3)on2)c2c(N)ncnc21,GI50,[1],> 10 µM
same,GI50,[2],> 10 µM
same,IC50,[3],1.99 µM
same,GI50 at 48 h,[4],> 10 µM
same,IC50,[5],0.241 µM
same,GI50,[6],> 10 µM
same,GI50 at 240 h,[7],21.5 µM
CC(C)n1nc(-c2cc(-c3ccccn3)on2)c2c(N)ncnc21,GI50,[1],9.26 µM
same,GI50,[2],0.7 µM
same,IC50,[3],5.88 µM
same,GI50 at 48 h,[4],5.3 µM
same,IC50,[5],0.91 µM
same,GI50,[6],1.11 µM
same,GI50 at 240 h,[7],1.63 µM

# From ChEMBL document CHEMBL3751668, “A Pyrazolo[3,4-d]pyrimidin-4-amine Derivative Containing an Isoxazole Moiety Is a Selective and Potent Inhibitor of RET Gatekeeper Mutants” (J Med Chem, 2016)
